The record followed here is patent US20250051337A1 (priority 2021, published 2025).

For one experiment, the target named is STK3 (Homo sapiens (Human), UniProt Q13188). Briefly: ADP-Glo kinase assay, STK3. The format is biochemical. Particulars: ADP-Glo, 50 μM ATP; read-out: STK3 IC50. On the procedure:
(§1) The STK3 kinase assay was performed in 5 μL reaction buffer containing 50 ng recombinant human STK3 protein (full length, SignalChem #S24-10G; Richmond, Canada), 250 μg/mL myelin basic protein (Sigma-Aldrich #M1891; St. Louis, MO, USA), and 50 μM ATP (Sigma-Aldrich #A7699). The STK4 kinase assay was performed in 5 μL reaction buffer containing 50 ng recombinant human STK4 protein (full length, SignalChem #S25-10G), 300 μg/mL Axltide (SignalChem #A16-58), and 50 μM ATP. […] Three experiments were performed, each in triplicate.
A general note: ADP-Glo first removes unused ATP, then detects ADP through luciferase.

The target of another experiment is STK4 (Homo sapiens (Human), UniProt Q13043). The experiment can be described thus: ADP-Glo kinase assay, STK4. In kind it is biochemical. Particulars: ADP-Glo, 50 μM ATP; read-out: STK4 IC50. On the procedure:
as §1

pIC50: −log10 of the molar value.

As usually defined, the pIC50 is −log10 of the IC50, conventionally taken in molar units.

Chain of STK4 (Q13043 whole entry): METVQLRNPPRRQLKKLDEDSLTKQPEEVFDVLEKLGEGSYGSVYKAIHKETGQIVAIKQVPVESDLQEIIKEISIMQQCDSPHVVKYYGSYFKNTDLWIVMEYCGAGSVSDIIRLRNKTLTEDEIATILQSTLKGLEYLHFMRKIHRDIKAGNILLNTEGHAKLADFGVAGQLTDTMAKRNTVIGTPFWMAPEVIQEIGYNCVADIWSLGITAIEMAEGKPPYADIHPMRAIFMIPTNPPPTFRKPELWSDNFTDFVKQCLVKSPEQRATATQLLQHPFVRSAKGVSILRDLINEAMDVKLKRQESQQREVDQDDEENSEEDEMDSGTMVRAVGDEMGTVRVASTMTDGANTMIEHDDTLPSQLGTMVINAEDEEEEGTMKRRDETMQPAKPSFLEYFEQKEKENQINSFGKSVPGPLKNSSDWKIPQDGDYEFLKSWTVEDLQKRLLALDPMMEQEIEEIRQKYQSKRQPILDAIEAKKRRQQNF
Chain of STK3 (Q13188 whole entry): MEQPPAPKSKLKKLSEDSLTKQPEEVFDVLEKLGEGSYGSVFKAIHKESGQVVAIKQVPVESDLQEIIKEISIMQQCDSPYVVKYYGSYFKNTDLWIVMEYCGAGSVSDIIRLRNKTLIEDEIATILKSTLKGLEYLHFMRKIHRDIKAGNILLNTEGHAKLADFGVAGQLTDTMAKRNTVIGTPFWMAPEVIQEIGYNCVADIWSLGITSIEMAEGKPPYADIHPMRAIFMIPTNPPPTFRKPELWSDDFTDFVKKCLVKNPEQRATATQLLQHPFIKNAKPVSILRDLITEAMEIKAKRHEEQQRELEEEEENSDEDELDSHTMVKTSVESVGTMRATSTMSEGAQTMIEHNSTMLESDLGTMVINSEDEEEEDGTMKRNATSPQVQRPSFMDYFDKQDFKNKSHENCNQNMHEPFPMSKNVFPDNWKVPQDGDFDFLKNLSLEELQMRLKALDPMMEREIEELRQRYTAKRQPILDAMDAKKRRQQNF

Consider `COC1CCN(c2ncnc3[nH]cc(-c4cccc(Cl)c4)c23)CC1` [Compound 110, 5-(3-chlorophenyl)-4-(4-methoxypiperidin-1-yl)-7H-pyrrolo[2,3-d]pyrimidine], for which the pIC50 at STK3 and at STK4 was over 6.00 throughout.
In the case of `CCN1CCCC1CNc1ncnc2[nH]cc(-c3cccc(Cl)c3)c12` (stereo not shown) [Compound 80, 5-(3-chlorophenyl)-N-((1-ethylpyrrolidin-2-yl)methyl)-7H-pyrrolo[2,3-d]pyrimidin-4-amine], the negative logarithm of the IC50 (pIC50) on STK3 and at STK4 was under 5.30 in each case.
Regarding `CNS(=O)(=O)c1ccc(Nc2nc(N3CCOCC3)c3c(-c4cccc(Cl)c4)c[nH]c3n2)cc1` [Compound 98, 4-((5-(3-chlorophenyl)-4-morpholino-7H-pyrrolo[2,3-d]pyrimidin-2-yl)amino)-N-methylbenzenesulfonamide], the pIC50 on STK3 and at STK4 was over 6.00 in each case.
As for `Clc1cccc(-c2c[nH]c3ncnc(N4CCN(c5ccccc5)CC4)c23)c1` [Compound 89, 5-(3-chlorophenyl)-4-(4-phenylpiperazin-1-yl)-7H-pyrrolo[2,3-d]pyrimidine], the pIC50 on STK3 and on STK4 was under 5.30 throughout.
In the case of `Clc1cccc(-c2c[nH]c3ncnc(NCCC(c4ccccc4)c4ccccc4)c23)c1` [Compound 88, 5-(3-chlorophenyl)-N-(3,3-diphenylpropyl)-7H-pyrrolo[2,3-d]pyrimidin-4-amine], the negative-log IC50 (pIC50) on STK3 and at STK4 was under 5.30 each time.
In the case of `COCC(C)CN(C)c1ncnc2[nH]cc(-c3cccc(Cl)c3)c12` (stereo not shown) [Compound 122, 5-(3-chlorophenyl)-N-(3-methoxy-2-methylpropyl)-N-methyl-7H-pyrrolo[2,3-d]pyrimidin-4-amine], the pIC50 on STK3 and at STK4 was 5.30 to 6.00 in each case.
On to `CNCC(C)CNc1ncnc2[nH]cc(-c3cccc(Cl)c3)c12` (stereo not shown) [Compound 131, N^1-(5-(3-chlorophenyl)-7H-pyrrolo[2,3-d]pyrimidin-4-yl)-N^3,2-dimethylpropane-1,3-diamine], for which the negative-log IC50 (pIC50) on STK3 and at STK4 was under 5.30 each time.
Regarding `COc1ccc(CCNc2ncnc3[nH]cc(-c4cccc(Cl)c4)c23)cc1OC` [Compound 72, 5-(3-chlorophenyl)-N-(3,4-dimethoxyphenethyl)-7H-pyrrolo[2,3-d]pyrimidin-4-amine], the negative logarithm of the IC50 (pIC50) at STK3 was under 5.30; on STK4 it was 5.30 to 6.00.
With `CN(C)C1CCN(c2ncnc3[nH]cc(-c4cccc(Cl)c4)c23)CC1` [Compound 107, 1-(5-(3-chlorophenyl)-7H-pyrrolo[2,3-d]pyrimidin-4-yl)-N,N-dimethylpiperidin-4-amine], the negative-log IC50 (pIC50) on STK3 and on STK4 was over 6.00 throughout.
For the molecule `C=CCNc1ncnc2[nH]cc(-c3cccc(Cl)c3)c12` [Compound 53, N-allyl-5-(3-chlorophenyl)-7H-pyrrolo[2,3-d]pyrimidin-4-amine], the negative-log IC50 (pIC50) on STK3 and at STK4 was over 6.00 throughout.
Turning to `Clc1cccc(-c2c[nH]c3ncnc(NCc4ccncc4)c23)c1` [Compound 71, 5-(3-chlorophenyl)-N-(pyridin-4-ylmethyl)-7H-pyrrolo[2,3-d]pyrimidin-4-amine], the negative-log IC50 (pIC50) on STK3 was under 5.30; at STK4, 5.30 to 6.00.
Regarding `CC(O)CNc1ncnc2[nH]cc(-c3cccc(Cl)c3)c12` (stereo not shown) [Compound 104, 1-((5-(3-chlorophenyl)-7H-pyrrolo[2,3-d]pyrimidin-4-yl)amino)propan-2-ol], the negative-log IC50 (pIC50) on STK3 and at STK4 was over 6.00 each time.
As to `Cc1noc(C)c1-c1c[nH]c2ncnc(N3CCOCC3)c12` [Compound 43, 4-(5-(3,5-dimethylisoxazol-4-yl)-7H-pyrrolo[2,3-d]pyrimidin-4-yl)morpholine], the negative-log IC50 (pIC50) at STK3 and at STK4 was under 5.30 throughout.
On to `COc1cccc(CNc2ncnc3[nH]cc(-c4cccc(Cl)c4)c23)c1` [Compound 74, 5-(3-chlorophenyl)-N-(3-methoxybenzyl)-7H-pyrrolo[2,3-d]pyrimidin-4-amine], for which the negative-log IC50 (pIC50) at STK3 and at STK4 was under 5.30 throughout.
As to `COc1ccc(CNc2ncnc3[nH]cc(-c4cccc(Cl)c4)c23)c(OC)c1` [Compound 73, 5-(3-chlorophenyl)-N-(2,4-dimethoxybenzyl)-7H-pyrrolo[2,3-d]pyrimidin-4-amine], the negative logarithm of the IC50 (pIC50) is under 5.30 on STK3 and 5.30 to 6.00 at STK4.
In the case of `CC(=O)NCC(C)CNc1ncnc2[nH]cc(-c3ccccc3)c12` (stereo not shown) [Compound 130, N-(2-methyl-3-((5-phenyl-7H-pyrrolo[2,3-d]pyrimidin-4-yl)amino)propyl)acetamide], the negative logarithm of the IC50 (pIC50) at STK3 and at STK4 was 5.30 to 6.00 throughout.
Consider `Clc1cccc(-c2c[nH]c3ncnc(NCCN4CCCC4)c23)c1` [Compound 83, 5-(3-chlorophenyl)-N-(2-(pyrrolidin-1-yl)ethyl)-7H-pyrrolo[2,3-d]pyrimidin-4-amine], for which the pIC50 on STK3 and at STK4 was under 5.30 in each case.
On to `COCC(C)CNc1ncnc2[nH]cc(-c3cccc(Cl)c3)c12` (stereo not shown) [Compound 123, 5-(3-chlorophenyl)-N-(3-methoxy-2-methylpropyl)-7H-pyrrolo[2,3-d]pyrimidin-4-amine], for which the negative logarithm of the IC50 (pIC50) on STK3 and at STK4 was over 6.00 each time.
Regarding `CC(=O)N1CCN(c2ncnc3[nH]cc(-c4cccc(Cl)c4)c23)CC1` [Compound 45, 1-(4-(5-(3-chlorophenyl)-7H-pyrrolo[2,3-d]pyrimidin-4-yl)piperazin-1-yl)ethan-1-one], the pIC50 on STK3 is 5.30 to 6.00; on STK4, over 6.00.
For `c1ncc(-c2c[nH]c3ncnc(N4CCOCC4)c23)cn1` [Compound 36, 4-(5-(pyrimidin-5-yl)-7H-pyrrolo[2,3-d]pyrimidin-4-yl)morpholine], in that order: under 5.30 and under 5.30.
As for `COC(=O)c1ccc(Nc2nc(N3CCOCC3)c3c(-c4cccc(Cl)c4)c[nH]c3n2)cc1` [Compound 99, methyl 4-((5-(3-chlorophenyl)-4-morpholino-7H-pyrrolo[2,3-d]pyrimidin-2-yl)amino)benzoate], the pIC50 at STK3 and on STK4 was under 5.30 in each case.
`Clc1cccc(-c2c[nH]c3ncnc(NCc4nccs4)c23)c1` [Compound 79, 5-(3-chlorophenyl)-N-(thiazol-2-ylmethyl)-7H-pyrrolo[2,3-d]pyrimidin-4-amine]: the negative logarithm of the IC50 (pIC50) at STK3 and on STK4 was under 5.30 in each case.
As for `CC(C)CNc1ncnc2[nH]cc(-c3cccc(Cl)c3)c12` [Compound 52, 5-(3-chlorophenyl)-N-isobutyl-7H-pyrrolo[2,3-d]pyrimidin-4-amine], the pIC50 at STK3 and on STK4 was over 6.00 throughout.
Consider `Cc1cnccc1-c1c[nH]c2ncnc(N3CCOCC3)c12` [Compound 37, 4-(5-(3-methylpyridin-4-yl)-7H-pyrrolo[2,3-d]pyrimidin-4-yl)morpholine], for which the pIC50 at STK3 and at STK4 was under 5.30 throughout.
For the molecule `C=CC(=O)Cc1nc(N2CCOCC2)c2c(-c3cccc(Cl)c3)c[nH]c2n1` [Compound 97, 1-(5-(3-chlorophenyl)-4-morpholino-7H-pyrrolo[2,3-d]pyrimidin-2-yl)but-3-en-2-one], the pIC50 at STK3 and at STK4 was under 5.30 each time.
Take `c1cc(-c2c[nH]c3ncnc(N4CCOCC4)c23)ccn1` [Compound 35, 4-(5-(pyridin-4-yl)-7H-pyrrolo[2,3-d]pyrimidin-4-yl)morpholine]: the negative logarithm of the IC50 (pIC50) on STK3 and at STK4 was under 5.30 in each case.
